Measured values reported in patent EP1420018A1, “Pyrido[1,2-a]benzimidazole derivatives useful in treating central nervous system disorders” (Ortho-McNeil Pharmaceutical, Inc., priority 1996, dated 1998).
Structures can show the parent of a compound that is named as a salt. Where two headings read alike, the source gives them in different places.

Tests used:
[1] = tested on: Anxiety in the Adult Male Rat; test: Suppression of Anxiety in the Adult Male Rat (rat conflict test); assay type: in vivo, rats; settings: Rattus norvegicus, rat
Method: Assay to Measure the Suppression of Anxiety in the Adult Male Rat
Male rats were deprived of water for 48 hours and were deprived of food for 24 hours prior to testing. After the first 24 hours of water deprivation, they were placed in the conflict chamber for a training period; wherein, they were allowed 200 unpunished licks from a bottle containing tap water. The experiment was run the next day. At the expected time of peak activity, the animals were placed in the chamber and allowed access to tap water. […] Their first lick initiates a 3-min test session. Subsequently, every 20th lick was punished by a 0.2-s shock delivered via the stainless-steel drinking-tube.
The Wilcoxon rank-sum test (Mann-Whitney U-test) was used to test for an increase (p<0.05, 1-tailed) in the median number of shocks in drug-treated groups, compared to a concurrently run vehicle-treated group. The biological assay is considered to be valid if the effects of a known anxiolytic (positive control) are detected, within the same experiment.

[2] = tested on: metrazol-induced convulsions; test: Suppression of Metrazol-Induced Convulsions in Adult Male Mice; assay type: in vivo; settings: Mus musculus, ip, mouse
Method: Assay to Determine the Suppression of Metrazol-Induced Convulsions in Adult Male Mice
Male CD1 mice, were fasted at least 16 hours, were divided into equal groups and test compounds or vehicle were administered parenterally. Water was not withheld except during the period of observations. […] Metrazol was dissolved in 0.9% sodium chloride solution, and its dose volume was 10 ml/kg. Animals were housed individually for observation of clonic convulsions, tonic convulsions and death for a period of 30 min. […] The biological assay was considered to be valid if the effects of a known anticonvulsant (positive control) were detected, within the same experiment. Activity was reported as percent reduction of clonic convulsions from the vehicle group.

[3] = target: benzodiazepine site of the GABA-A receptor; test: Benzodiazepine Receptor Binding Assay (inhibition of 3H-flunitrazepam binding); settings: read-out: GABAA Receptor Binding IC50
[4] = tested on: metrazol-induced convulsions; test: Suppression of Metrazol-Induced Convulsions in Adult Male Mice; assay type: in vivo; settings: Mus musculus, po, mouse
[5] = po, po, read-out: Rat Conflict (MED, mg/kg) po
[6] = ip, ip, read-out: Rat Conflict (MED, mg/kg) ip

| Compound | minimal effective dose [1, 5] [mg/kg] | ED50 [2] [mg/kg] | IC50 [3] [nM] | ED50 [4] [mg/kg] | minimal effective dose [1, 6] [mg/kg] |
| --- | --- | --- | --- | --- | --- |
| O=C1CCN2C(=C1C(=O)Nc1ccccc1F)N(CCNC(=O)c1ccccc1)c1cc(F)ccc12 [Compound 46] | ~10 | 1 | 8.1 | 30 |  |
| O=C1CCN2C(=C1C(=O)Nc1ccccc1F)N(CCNS(=O)(=O)c1cccs1)c1cc(F)ccc12 [Compound 47] |  | 1 | 13.7 | 30 | > 10 |
| O=C1CCN2C(=C1C(=O)Nc1ccccc1F)N(CCNS(=O)(=O)C(F)(F)F)c1cc(F)ccc12 [Compound 48, 7-Fluoro-1,2-dihydro-5-[2-(trifluoromethylsulfonamido)ethyl]-3-oxo-N-(2-fluorophenyl)pyrido[1,2-a]benzimidazole-4-carboxamide] | 10 | ≤ 1 | 30.2 | < 30 |  |
| CN(C)CCN1C2=C(C(=O)Nc3cccs3)C(=O)CCN2c2ccc(F)cc21 [Compound 49] | ~10 | 3 | 152 | ~5 | > 10 |
| CS(=O)(=O)NCCN1C2=C(C(=O)Nc3ccccc3F)C(=O)CCN2c2ccc(F)cc21 [Compound 50] |  | 1 | 7.7 | < 30 | > 10 |
| O=C1CCN2C(=C1C(=O)Nc1ccccc1F)N(CCNC(=O)C(F)(F)F)c1cc(F)ccc12 [Compound 51] | > 10 | 0.3 | 0.51 | 1 | ~10 |
| COCCNCCN1C2=C(C(=O)Nc3ccccc3F)C(=O)CCN2c2ccc(F)cc21 [Compound 52] | 10 | 1 | 7.42 | 1 | ~10 |
| CC(=O)NCCN1C2=C(C(=O)Nc3ccccc3F)C(=O)CCN2c2ccc(F)cc21 [Compound 53] |  | 7 | 5.47 | 30 | > 10 |
| CN(C)CCN1C2=C(C(=O)Nc3c(F)cc(F)cc3F)C(=O)CCN2c2ccc(F)cc21 [Compound 54] |  | 10 | 208 | > 30 | > 10 |
| CN(C)CCN1C2=C(C(=O)Nc3ccc(F)cc3F)C(=O)CCN2c2ccc(F)cc21 [Compound 55] | 3 | 1 | 31.8 | 1 | < 10 |
| COCCN(CCN1C2=C(C(=O)Nc3ccccc3F)C(=O)CCN2c2ccc(F)cc21)Cc1ccccc1 [Compound 56] |  | 1 | 7.99 | ~10 | > 10 |
| NCCN1C2=C(C(=O)Nc3ccccc3F)C(=O)CCN2c2ccc(F)cc21 [Compound 57] | 10 | 0.3 | 5.13 | 10 | ~10 |
| CC(C)(C)OC(=O)NCCN1C2=C(C(=O)Nc3ccccc3F)C(=O)CCN2c2ccc(F)cc21 [Compound 58] | > 10 | < 1 | 0.54 | < 30 | ≤ 10 |
| CNCCN1C2=C(C(=O)Nc3ccccc3F)C(=O)CCN2c2ccc(F)cc21 [Compound 59, 7-Fluoro-1,2-dihydro-5-[2-(methylamino)ethyl]-3-oxo-N-(2-fluorophenyl)pyrido[1,2-a]benzimidazole-4-carboxamide hydrochloride hydrate (4:4:5)] | 1 | 3 | 16 | 10 | 10 |
| O=C(CN1C2=C(C(=O)Nc3ccccc3F)C(=O)CCN2c2ccc(F)cc21)Nc1ccccc1F [Compound 61, 7-Fluoro-1,2-dihydro-5-[N-(2-fluorophenyl)-2-acetamido]-3-oxo-N-(2-fluorophenyl)pyrido[1,2-a]benzimidazole-4-carboxamide] |  | < 1 | 6.32 | 30 | > 10 |
| CN(CCN1C2=C(C(=O)Nc3ccccc3F)C(=O)CCN2c2ccc(F)cc21)Cc1ccc(F)cc1 [Compound 62] | > 10 | 3 | 7.69 | 30 | < 10 |
| O=C1CCN2C(=C1C(=O)Nc1ccccc1F)N(CCN(Cc1ccccc1)Cc1ccccc1)c1cc(F)ccc12 [Compound 64] |  | 3 | 3.02 | > 30 | > 10 |
| CN(CCN1C2=C(C(=O)Nc3c(F)cccc3F)C(=O)CCN2c2ccc(F)cc21)Cc1ccc(F)cc1 [Compound 65] |  | > 10 | 11 | > 30 | > 10 |

| Compound | minimal effective dose [1, 5] [mg/kg] | ED50 [2] [mg/kg] | IC50 [3] [nM] | ED50 [4] [mg/kg] | minimal effective dose [1, 6] [mg/kg] |
| --- | --- | --- | --- | --- | --- |
| CN(C)CCCN1C2=C(C(=O)Nc3c(F)cccc3F)C(=O)CCN2c2ccc(F)cc21 [Compound 66] |  | > 30 | 83.7 | > 10 | > 10 |
| CN(C)CCCN1C2=C(C(=O)Nc3ccccc3F)C(=O)CCN2c2ccc(F)cc21 [Compound 67] | > 10 | 3 | 3.29 | 30 | 10 |
| CC(C)N(CCN1C2=C(C(=O)Nc3c(F)cccc3F)C(=O)CCN2c2ccc(F)cc21)C(C)C [Compound 68] |  | > 10 | 44.6 | > 30 | 10 |
| CC(C)N(CCN1C2=C(C(=O)Nc3ccccc3F)C(=O)CCN2c2ccc(F)cc21)C(C)C [Compound 69] |  | 1 | 78.4 | > 30 | > 10 |
| CCN(CC)CCN1C2=C(C(=O)Nc3c(F)cccc3F)C(=O)CCN2c2ccc(F)cc21 [Compound 70] |  | > 10 | 267 | > 30 | > 10 |
| CCN(CC)CCN1C2=C(C(=O)Nc3ccccc3F)C(=O)CCN2c2ccc(F)cc21 [Compound 71] | > 10 | 2 | 74.5 | 10 | < 10 |
| CN(C)CCN1C2=C(C(=O)Nc3ccncc3)C(=O)CCN2c2ccccc21 [Compound 72] |  | > 10 | 3840 | > 30 | > 10 |
| CN(C)CCN1C2=C(C(=O)Nc3c(F)cccc3F)C(=O)CCN2c2ccc(F)cc21 [Compound 73] |  | > 10 | 32.1 | > 30 | > 10 |
| CN(C)CCN1C2=C(C(=O)Nc3ccccc3F)C(=O)CCN2c2ccc(F)cc21 [Compound 74, 7-Fluoro-1,2-dihydro-5-(2-dimethylaminoethyl)-3-oxo-N-(2-fluorophenyl)pyrido[1,2-a]benzimidazole-4-carboxamide hydrochloride hydrate (4:4:1)] | 3 | 0.5 | 49.9 | < 3 | < 10 |
| O=C1CCN2C(=C1C(=O)Nc1ccccc1F)N(CCNC(=O)c1cccc(C(F)(F)F)c1)c1cc(F)ccc12 [Compound 75] | > 10 | > 1 | 9.5 | > 30 |  |
| O=C1CCN2C(=C1C(=O)Nc1ccccc1F)N(CCNC(=O)c1ccccc1C(F)(F)F)c1cc(F)ccc12 [Compound 76] | > 10 | > 1 | 40.9 | > 30 |  |
| N#CCN1C2=C(C(=O)NC3CC3)C(=O)CCN2c2ccc(F)cc21 [Compound 77] | > 10 | < 1 | 0.86 | > 30 |  |
| N#CCN1C2=C(C(=O)NC3CCCCC3)C(=O)CCN2c2ccc(F)cc21 [Compound 78] | > 10 | > 1 | 30 | > 30 |  |
| CC(C)NC(=O)NCCN1C2=C(C(=O)Nc3ccccc3F)C(=O)CCN2c2ccc(F)cc21 [Compound 79] | > 10 | > 1 | 10.5 | > 30 |  |
| CC(C)(C)OC(=O)N1CCN(CCN2C3=C(C(=O)Nc4ccccc4F)C(=O)CCN3c3ccc(F)cc32)CC1 [Compound 80] | > 10 | > 1 | 3.7 | > 30 |  |
| O=C1CCN2C(=C1C(=O)Nc1ccccc1F)N(CCN1CCNCC1)c1cc(F)ccc12 [Compound 81] | > 10 | > 1 | 12.7 | > 30 |  |
| CN(C)c1ccc(CCN2C3=C(C(=O)Nc4c(F)cccc4F)C(=O)CCN3c3ccc(F)cc32)cc1 [Compound 83] |  | 3 | 36.2 | < 30 | > 10 |
| CN(C)c1ccc(CCN2C3=C(C(=O)Nc4ccccc4F)C(=O)CCN3c3ccc(F)cc32)cc1 [Compound 84] |  | 1 | 8.52 | < 30 | > 10 |
